Data from ChEMBL document CHEMBL1201862, “PubChem BioAssay data set” (2004).
Blank lines part the entries; values can stand above or below the compound they belong to. Active and inactive are the calls of the source.

What was measured:
[1] = Counterscreen for AddAB inhibitors: absorbance-based bacterial cell-based high throughput dose response assay for inhibitors of bacterial viability. [Related pubchem assays (depositor defined):AID435030, AID449728, AID449731, AID488942, AID488955, AID488956]; assay type: functional
Exodeoxyribonuclease V = Exodeoxyribonuclease V (Escherichia coli (strain K12), UniProt P04993+P07648+P08394); assay: E. coli RecBCD inhibitors, dose response, counter-screen for AddAB inhibitor project, absorbance, V66 E. coli, mutant T4 phage (AID 492957); assay type: functional, cell-based, Escherichia coli str. K-12 substr. MG1655
Chain of Exodeoxyribonuclease V (P04993 whole entry): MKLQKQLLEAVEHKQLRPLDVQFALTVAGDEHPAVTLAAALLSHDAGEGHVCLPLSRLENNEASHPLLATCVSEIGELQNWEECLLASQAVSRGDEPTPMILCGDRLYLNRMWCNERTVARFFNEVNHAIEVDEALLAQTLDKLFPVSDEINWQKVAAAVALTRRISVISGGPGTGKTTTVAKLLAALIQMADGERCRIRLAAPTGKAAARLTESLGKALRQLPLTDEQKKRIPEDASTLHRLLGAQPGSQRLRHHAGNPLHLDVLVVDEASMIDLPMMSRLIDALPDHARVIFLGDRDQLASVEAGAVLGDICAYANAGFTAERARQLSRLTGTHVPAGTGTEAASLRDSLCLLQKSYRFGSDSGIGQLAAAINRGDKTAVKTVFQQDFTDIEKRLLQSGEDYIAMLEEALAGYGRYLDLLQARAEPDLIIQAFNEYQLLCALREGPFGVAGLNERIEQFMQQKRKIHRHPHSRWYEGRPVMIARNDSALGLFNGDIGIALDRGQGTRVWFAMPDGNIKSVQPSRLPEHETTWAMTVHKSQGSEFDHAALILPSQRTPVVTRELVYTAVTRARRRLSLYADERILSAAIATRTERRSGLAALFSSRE
Chain of Exodeoxyribonuclease V (P07648 whole entry): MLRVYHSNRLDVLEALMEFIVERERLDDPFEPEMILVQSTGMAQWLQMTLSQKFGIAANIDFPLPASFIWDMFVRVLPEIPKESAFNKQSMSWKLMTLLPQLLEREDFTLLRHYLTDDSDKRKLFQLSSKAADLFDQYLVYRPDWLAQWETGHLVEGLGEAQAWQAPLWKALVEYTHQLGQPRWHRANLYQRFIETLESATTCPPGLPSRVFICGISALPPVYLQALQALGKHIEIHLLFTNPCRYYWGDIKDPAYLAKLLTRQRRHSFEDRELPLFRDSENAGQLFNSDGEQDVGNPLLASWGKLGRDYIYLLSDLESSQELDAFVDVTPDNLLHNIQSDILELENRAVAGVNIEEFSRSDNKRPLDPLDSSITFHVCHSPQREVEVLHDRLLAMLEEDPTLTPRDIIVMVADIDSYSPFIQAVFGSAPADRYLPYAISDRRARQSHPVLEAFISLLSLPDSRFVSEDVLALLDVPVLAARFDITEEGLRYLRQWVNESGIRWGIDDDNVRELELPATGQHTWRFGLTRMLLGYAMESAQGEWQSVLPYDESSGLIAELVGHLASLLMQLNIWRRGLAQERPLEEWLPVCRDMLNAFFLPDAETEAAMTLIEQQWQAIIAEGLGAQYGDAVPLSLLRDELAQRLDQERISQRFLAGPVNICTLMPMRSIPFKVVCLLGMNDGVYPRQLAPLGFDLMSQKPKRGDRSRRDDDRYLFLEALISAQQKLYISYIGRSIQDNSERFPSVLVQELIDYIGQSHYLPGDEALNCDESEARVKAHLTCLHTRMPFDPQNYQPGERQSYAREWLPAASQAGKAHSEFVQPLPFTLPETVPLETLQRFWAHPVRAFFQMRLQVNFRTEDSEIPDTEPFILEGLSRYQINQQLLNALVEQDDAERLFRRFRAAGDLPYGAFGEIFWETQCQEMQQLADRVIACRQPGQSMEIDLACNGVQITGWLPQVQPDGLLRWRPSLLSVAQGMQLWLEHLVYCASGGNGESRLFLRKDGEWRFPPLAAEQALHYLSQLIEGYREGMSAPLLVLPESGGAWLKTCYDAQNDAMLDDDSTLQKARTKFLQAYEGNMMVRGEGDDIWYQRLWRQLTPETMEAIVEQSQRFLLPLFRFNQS
Chain of Exodeoxyribonuclease V (P08394 whole entry): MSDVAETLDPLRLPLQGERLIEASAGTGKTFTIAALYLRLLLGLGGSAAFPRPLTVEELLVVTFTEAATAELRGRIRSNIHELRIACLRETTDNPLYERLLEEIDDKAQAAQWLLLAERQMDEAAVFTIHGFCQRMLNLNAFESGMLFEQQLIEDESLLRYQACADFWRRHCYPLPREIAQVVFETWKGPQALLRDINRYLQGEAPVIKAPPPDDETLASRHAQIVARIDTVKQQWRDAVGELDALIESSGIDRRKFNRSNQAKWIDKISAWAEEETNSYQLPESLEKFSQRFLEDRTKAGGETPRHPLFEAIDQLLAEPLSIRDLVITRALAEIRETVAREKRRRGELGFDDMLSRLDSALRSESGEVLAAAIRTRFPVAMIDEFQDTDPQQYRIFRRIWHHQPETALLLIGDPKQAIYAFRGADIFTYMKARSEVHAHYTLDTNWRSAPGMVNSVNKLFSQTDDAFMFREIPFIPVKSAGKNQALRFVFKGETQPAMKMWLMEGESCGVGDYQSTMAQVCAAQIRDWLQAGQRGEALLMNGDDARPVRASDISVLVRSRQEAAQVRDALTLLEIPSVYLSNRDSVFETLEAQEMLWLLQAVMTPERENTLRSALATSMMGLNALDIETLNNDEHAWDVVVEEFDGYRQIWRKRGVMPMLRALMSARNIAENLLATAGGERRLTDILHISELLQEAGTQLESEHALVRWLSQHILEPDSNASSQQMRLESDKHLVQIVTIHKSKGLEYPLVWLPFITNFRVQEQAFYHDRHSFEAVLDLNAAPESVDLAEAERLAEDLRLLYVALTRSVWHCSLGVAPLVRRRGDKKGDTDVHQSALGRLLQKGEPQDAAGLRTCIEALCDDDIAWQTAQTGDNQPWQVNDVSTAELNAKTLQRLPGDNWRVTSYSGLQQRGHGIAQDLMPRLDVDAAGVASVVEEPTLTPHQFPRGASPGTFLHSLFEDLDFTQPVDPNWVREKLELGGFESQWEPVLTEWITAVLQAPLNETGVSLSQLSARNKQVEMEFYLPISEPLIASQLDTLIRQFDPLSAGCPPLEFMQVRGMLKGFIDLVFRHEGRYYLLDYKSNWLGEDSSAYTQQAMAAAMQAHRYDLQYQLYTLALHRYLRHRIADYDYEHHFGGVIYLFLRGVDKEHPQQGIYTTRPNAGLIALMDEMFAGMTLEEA

[2] = molecular target: T1, Alkaline phosphatase, tissue-nonspecific isozyme (Homo sapiens, UniProt P05186); assay: TNAP enzyme inhibition by screening hits, dose response, selectivity assay for mouse IAP inhibitor project, biochemical, human TNAP, uHTS hits (AID 488906); assay type: functional
T1 sequence (P05186 whole entry): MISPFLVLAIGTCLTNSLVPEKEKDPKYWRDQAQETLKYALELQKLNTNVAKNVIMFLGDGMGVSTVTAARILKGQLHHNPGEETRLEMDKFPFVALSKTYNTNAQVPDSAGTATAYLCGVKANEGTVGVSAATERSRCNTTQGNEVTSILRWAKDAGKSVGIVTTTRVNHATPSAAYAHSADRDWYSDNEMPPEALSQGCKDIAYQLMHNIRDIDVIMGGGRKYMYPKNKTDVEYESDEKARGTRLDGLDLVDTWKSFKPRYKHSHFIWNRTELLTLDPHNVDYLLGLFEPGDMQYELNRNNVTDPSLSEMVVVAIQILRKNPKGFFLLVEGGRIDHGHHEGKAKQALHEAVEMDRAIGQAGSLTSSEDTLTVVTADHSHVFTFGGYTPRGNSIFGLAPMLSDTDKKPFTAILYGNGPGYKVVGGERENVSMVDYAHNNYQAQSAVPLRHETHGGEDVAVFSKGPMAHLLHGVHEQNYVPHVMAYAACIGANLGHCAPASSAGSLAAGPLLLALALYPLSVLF

[3] = molecular target: Intestinal-type alkaline phosphatase (Mus musculus, UniProt P24822); assay: PubChem AID 488785; assay type: functional
Chain of Intestinal-type alkaline phosphatase (Mus musculus, UniProt P24822) (P24822 whole entry): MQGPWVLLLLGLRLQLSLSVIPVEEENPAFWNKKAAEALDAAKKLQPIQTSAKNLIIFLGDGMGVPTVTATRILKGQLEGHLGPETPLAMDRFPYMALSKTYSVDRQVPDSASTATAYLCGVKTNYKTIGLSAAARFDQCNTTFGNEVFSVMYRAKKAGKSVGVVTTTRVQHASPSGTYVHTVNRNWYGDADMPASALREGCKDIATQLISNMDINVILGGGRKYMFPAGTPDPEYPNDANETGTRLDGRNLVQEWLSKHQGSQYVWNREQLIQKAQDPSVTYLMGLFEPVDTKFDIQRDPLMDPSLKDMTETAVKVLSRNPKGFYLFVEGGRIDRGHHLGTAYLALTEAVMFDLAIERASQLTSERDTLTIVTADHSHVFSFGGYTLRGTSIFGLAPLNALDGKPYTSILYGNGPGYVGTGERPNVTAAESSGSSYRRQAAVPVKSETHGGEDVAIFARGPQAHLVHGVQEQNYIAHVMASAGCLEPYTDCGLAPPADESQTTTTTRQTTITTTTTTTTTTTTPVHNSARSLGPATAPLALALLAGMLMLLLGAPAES

[4] = molecular target: Intestinal-type alkaline phosphatase (Homo sapiens, UniProt P09923); assay: inhibition of human intestinal alkaline phosphatase – biochemical, dose response (AID 488876); assay type: functional
Chain of Intestinal-type alkaline phosphatase (Homo sapiens, UniProt P09923) (P09923 whole entry): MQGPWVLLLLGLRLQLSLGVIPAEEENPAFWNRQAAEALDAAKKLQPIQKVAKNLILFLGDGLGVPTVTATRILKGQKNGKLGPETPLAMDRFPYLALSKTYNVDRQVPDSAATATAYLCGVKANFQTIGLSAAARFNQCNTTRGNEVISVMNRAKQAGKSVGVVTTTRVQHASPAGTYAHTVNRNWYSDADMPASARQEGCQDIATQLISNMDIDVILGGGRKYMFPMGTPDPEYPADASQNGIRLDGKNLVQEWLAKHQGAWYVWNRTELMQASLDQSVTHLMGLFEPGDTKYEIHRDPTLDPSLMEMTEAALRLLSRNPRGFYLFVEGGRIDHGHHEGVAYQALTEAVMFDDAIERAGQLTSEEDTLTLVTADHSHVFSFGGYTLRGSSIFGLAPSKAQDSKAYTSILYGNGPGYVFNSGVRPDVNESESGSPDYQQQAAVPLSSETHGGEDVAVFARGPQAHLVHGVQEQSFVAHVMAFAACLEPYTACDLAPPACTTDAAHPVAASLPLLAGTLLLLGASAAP

[5] = Luminescence Cell-Based Secondary HTS screen to identify cytotoxic compounds of NIH3T3 cells. [Related pubchem assays: 1885, 1968 ]; assay type: functional
[6] = Luminescence Cell-Based/Microorganism Confirmation at Dose of Inhibitors of Trypanosoma cruzi Infection. [Related pubchem assays: 1885, 1968 ]; assay type: functional
[7] = inhibitors of intracellular T. cruzi replication, confirmation, NIH3T3 host cells, beta-gal luminescence (AID 2044); assay type: functional, cell-based;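 further: intracellular parasites grown in NIH/3T3 mouse fibroblasts as host cells; luminescent beta-galactosidase reporter signal from transgenic T. cruzi replicating inside host cells; inhibitors lower the luminescence signal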
[8] = inhibitors of Trypanosoma cruzi host-cell infection, confirmation, beta-gal luminescence, NIH3T3 host cells (AID 2630); assay type: functional, cell-based; conditions: Mus musculus
[9] = cytotoxicity toward NIH3T3 fibroblasts, dose response, counter-screen, cell-based, ATP luminescence, mouse fibroblasts (AID 2010); assay type: functional;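 further: cells exposed to compound for about 90 hours before reading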
CAAX prenyl protease 1 = CAAX prenyl protease 1 (Saccharomyces cerevisiae S288c, UniProt P47154); assay: Ste24 protease inhibitors, dose response, biochemical, S. cerevisiae, plate reader, cherry-pick (AID 488815)
Chain of CAAX prenyl protease 1 (P47154 whole entry): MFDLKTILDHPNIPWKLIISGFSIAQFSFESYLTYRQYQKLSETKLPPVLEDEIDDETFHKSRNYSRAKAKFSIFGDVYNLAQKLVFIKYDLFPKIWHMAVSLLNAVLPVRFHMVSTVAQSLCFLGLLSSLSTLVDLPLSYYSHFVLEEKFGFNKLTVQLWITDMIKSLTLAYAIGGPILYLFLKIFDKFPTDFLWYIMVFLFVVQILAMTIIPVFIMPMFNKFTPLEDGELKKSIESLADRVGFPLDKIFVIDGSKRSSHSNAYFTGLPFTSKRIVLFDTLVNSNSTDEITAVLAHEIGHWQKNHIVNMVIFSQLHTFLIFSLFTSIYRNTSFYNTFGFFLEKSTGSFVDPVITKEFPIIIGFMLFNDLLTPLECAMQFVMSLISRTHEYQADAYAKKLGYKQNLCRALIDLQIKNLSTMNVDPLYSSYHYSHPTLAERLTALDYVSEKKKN

CAAX prenyl protease 2 = molecular target: T2, CAAX prenyl protease 2 (Homo sapiens, UniProt Q9Y256); assay: human Rce1 protease inhibitors, dose response, biochemical, yeast membranes, quenched-peptide fluorescence, cherry-pick (AID 588849)
T2 sequence (Q9Y256 whole entry): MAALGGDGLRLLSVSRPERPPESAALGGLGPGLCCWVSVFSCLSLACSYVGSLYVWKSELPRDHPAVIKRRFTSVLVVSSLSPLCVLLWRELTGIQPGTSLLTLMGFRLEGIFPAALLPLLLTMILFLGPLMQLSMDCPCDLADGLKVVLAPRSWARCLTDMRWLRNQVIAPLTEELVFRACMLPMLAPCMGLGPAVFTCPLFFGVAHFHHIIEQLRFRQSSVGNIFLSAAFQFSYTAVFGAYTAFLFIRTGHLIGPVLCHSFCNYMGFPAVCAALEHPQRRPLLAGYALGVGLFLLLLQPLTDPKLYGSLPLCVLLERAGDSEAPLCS

SMILES: N#Cc1c(-c2ccccc2)ccn(Cc2cccc(Cl)c2)c1=O
IC50 [1]: > 119 µM (inactive)
IC50 (Exodeoxyribonuclease V): > 119 µM (inactive)

IC50 [2]: 11.8 µM (active)
IC50 [3]: 2.51 µM (active)
IC50 [4]: 7.73 µM (active)
SMILES: NS(=O)(=O)c1ccc2c(c1)oc(=O)c1cc(S(N)(=O)=O)ccc12

SMILES: CC(C)Oc1cccc(C(=O)C2CCCN(Cc3cnc(N4CCCC4)s3)C2)c1 (configuration not stated)
EC50 [5]: 63.8 µM (active)
EC50 [6]: 0.606 µM (active)
EC50 [7]: 0.14 µM (active)
EC50 [8]: 0.607 µM (active)
EC50 [9]: > 60 µM (not active)

AC50 (CAAX prenyl protease 1): 7.93 µM (active)
AC50 (CAAX prenyl protease 2): 22.3 µM (active)
SMILES: CCOc1cccc(-c2nn(-c3ccccc3)cc2/C=C(/C#N)C(=O)NCCCn2ccnc2)c1
